Source: patent publication US11390437B2, “Pharmaceutical formulation” (priority 2002, dated 2022)
“Also recorded” adds a separate entry of the source.

Key:
[1] = Absorption (AUC) by route of administration, Example 3; settings: after oropharyngeal (buccal) versus sublingual administration
[2] = Cannabinoid uptake in patients, drops applied sublingually; format: in vivo, human; settings: sublingual drops, dose approx 20 mg of each cannabinoid; for Cmax / AUC(0-t): human, plasma; for AUC(0-t): read-out: AUC 0-12
Experimental: Initially the applicant looked at cannabinoid uptake in patients by applying drops sublingually (BDS dissolved in a mixture of a glycerol/propylene glycol and ethanol) THC 5 mg/ml, CBD 5 mg/ml and THC/CBD 5 mg/ml plus 5 mg/ml.
The results are noted in Table 3 below:
The proportion of 11 hydroxy tetrahydro cannabinol to THC (AUC 0-12) was about 1.9 indicating a significant amount of oral ingestion may have occurred.
(§1) The data obtained is illustrated in FIGS. 1a, 1b and 2, which show the mean plasma concentrations for the formulations identified with reference to Tables 3 and 4.

[3] = Cannabinoid uptake, pump action sublingual spray; format: in vivo, human; settings: dose approx 21 mg THC and 35 mg CBD; for Cmax / AUC(0-t): human, plasma; for AUC(0-t): read-out: AUC 0-12
Experimental: On moving to a pump action sublingual spray (following problems solubilising cannabinoids with hydrofluorocarbon propellant systems) the applicant obtained the results noted in Table 4. The solvent system comprised 50:50 ethanol to propylene glycol (v/v ratio) with THC 25 mg/ml; CBD 50 mg/ml and THC/CBD 25 mg/ml plus 50 mg/ml respectively.
The proportion of 11 hydroxy tetrahydro cannabinol to THC (AUC 0-12) was about 1.6. The profile for each cannabinoid was similar irrespective of the formulation (THC, CBD, THC plus CBD).
as §1
That effective delivery of the cannabinoids can be achieved in a vehicle consisting of ethanol and propylene glycol is illustrated by the plasma levels shown in FIGS. 1a, 1b and 2. These show, respectively, formulations containing the high THC and high CBD formulations in FIGS. 1a and 1b. Similarly, the effectiveness of a defined ratio formulation THC:CBD 1:1 is illustrated in FIG. 2.

[4] = Effect of light on stability of methanolic CBME solutions, HPLC; format: physicochemical; settings: for residual compound: amber glass protected, 112 days
Description: Experiments were set up to follow the effects of white light on the stability of methanolic solutions of THC, CBD or THCV. Following preliminary knowledge that light of different wavelengths may have differing effects on compound stability (viz. tretinoin is stable only in red light or darkness), samples were wrapped in coloured acetate films or in light exclusive foil. A concurrent experiment used charcoal treated CBME to study the effects of the removal of plant pigments on the degradation process.
Cannabinoids: 1 mg/ml solutions of CBME were made up in AR methanol. Methanolic solutions of CBME (100 mg/ml) were passed through charcoal columns (Biotage Flash 12AC 7.5 cm cartridges, b/no. 273012S) and were then diluted to 1 mg/ml. Solutions were stored in soda-glass vials, which were tightly screw capped and oversealed with stretch film. Tubes were wrapped in coloured acetate films as follows:
Solutions were also filled into the amber glass U-save vials; these were sealed with a septum and oversealed. One tube of each series of samples was tightly wrapped in aluminium foil in order to completely exclude light. This served as a “dark” control to monitor the contribution of ambient temperature to the degradation behaviour. All of the above tubes were placed in a box fitted with 2×40 watt white Osram fluorescent tubes. The walls of the box were lined with reflective foil and the internal temperature was monitored at frequent intervals.
A further tube of each series was stored at −20° C. to act as a pseudo to the reference sample; in addition, one tube was exposed directly to light without protection. Samples were withdrawn for chromatographic analysis at intervals up to 112 days following the start of the study. The study was designated AS01201/AX282.
(§2) Samples of the test solutions were withdrawn and diluted as appropriate for HPLC and TLC analysis. HPLC was carried out in accordance with TM GE.004.V1 (SOPam058). TLC was performed on layers on Silica gel (MN SilG/UV) in accordance with TM GE.002.V1 (SOPam056).
The results from the HPLC analysis of samples drawn from the stored, light exposed solutions, are plotted and presented as FIGS. 6 and 6a (THC before and after charcoal treatment), and FIGS. 7 and 7a (CBD before and after charcoal treatment).

[5] = Effect of light on stability, TLC qualitative analysis; format: physicochemical
Experimental: as §2
The evaluation of the light degraded solutions using thin layer chromatography, used both the existing normal phase system (i.e. Silica stationary phase and hexane/diethyl ether as mobile phase) and two additional systems, capable of resolving more polar or polymeric products formed during the degradation processes.
At the same time, there was an increase in the intensity of Fast Blue B staining material running at, or close to, the origin.

[6] = CNS effect; Carlini et al, 1973; cited from earlier work
[7] = postural hypotension in naïve patients, hypertension reported on prolonged usage; cited from earlier work
[8] = THC alone versus same quantity of THC as Cannabis extract; cited from earlier work
[9] = Relative thermo-oxidative stability; settings: THC versus CBD
[10] = Reports of subjects taking THCV; settings: compared with THC

CCCCCc1cc(O)c2c(c1)OC(C)(C)[C@@H]1CCC(CO)=C[C@@H]21 [11-OH THC, 11 hydroxy tetrahydro cannabinol]
reduction in the amount of 11-hydroxy metabolite detected [1]: approximately 25%

CCCCCc1cc(O)c2c(c1)OC(C)(C)[C@@H]1CCC(C)=C[C@@H]21 [THC, Δ^9-tetrahydrocannabinol]
Cmax [2]: 6 ng/mL | AUC(0-t) [2]: ~16 ng·h/mL | Plasma levels after 6 hours [2]: ~1 ng/mL | Plasma levels after 6 hours [3]: Plasma levels after 6 hours were about 1 ng/ml THC and 1 ng/ml CBD | Cmax [3]: 6 ng/mL | AUC(0-t) [3]: ~16 ng·h/mL | stability of charcoal treated versus untreated extract ([4]; all solutions except those stored in the dark and at −20° C.): significant improvements to the stability | TLC spot intensity ([5]; day 112, all colour filtered lights, hexane/diethyl ether system): reduction in the intensity | TLC spot intensity ([5]; day 112, foil protected solution): none of these effects | Anticonvulsant [6]: † THC is pro convulsant | effect on blood pressure [7]: § THC has a biphasic effect on blood pressure; in naïve patients it may produce postural hypotension and it has also been reported to produce hypertension on prolonged usage. | degree of pain relief [8]: lower degree of pain relief than the same quantity of THC given as an extract of Cannabis | relative thermo-oxidative stability [9]: less stable

CCCc1cc(O)c2c(c1)OC(C)(C)[C@@H]1CCC(C)=C[C@@H]21 [THCV, Δ^9-tetrahydrocannabinol propyl analogue]
hangover [10]: less severe hangover | mood enhancement as reported by subjects [10]: less disturbing than that produced by THC

C=C(C)[C@@H]1CCC(C)=C[C@H]1c1c(O)cc(CCCCC)cc1O [CBD, cannabidiol]
Cmax [2]: 2 ng/mL | AUC(0-t) [2]: ~8 ng·h/mL | Plasma levels after 6 hours [2]: ~0.5 ng/mL | Plasma levels after 6 hours [3]: Plasma levels after 6 hours were about 1 ng/ml THC and 1 ng/ml CBD | Cmax [3]: 8 ng/mL | AUC(0-t) [3]: ~22 ng·h/mL | residual compound ([4]; after charcoal treatment): approximately 64% | residual compound ([4]; without charcoal clean up): ~38% | relative stability under photochemical stress ([4]; light exposed methanolic CBME solutions): significantly more sensitive to the effects of light than is THC; also recorded: markedly less stable than THC | time to degradation to non-detectable levels ([4]; no charcoal treatment, all light exposures except amber glass, foil and −20° storage, 1 mg/ml CBME in methanol): < 40 days
